These results are taken from patent publication US7750184B2, “Vitamin D receptor modulators” (Eli Lilly and Company, priority 2003, dated 2010).

For one data set, the system named is rat osteocalcin promoter. Kind of data set: OCN (osteocalcin) promoter assay. It counts as cell-based. The settings on record: RG-15 (ROS 17/2.8) cells, 48 hr treatment, luciferase reporter. The method, then: 3. The OCN (osteocalcin) Promoter Assay
The OCN Promoter Assay is an indicator and marker for osteoporosis. […] Preferred assay results are less than 50 nM.
(3) Materials and Method for the OCN Promoter Assay:
The activation of osteocalcin by VDR ligands was evaluated in a rat osteoblast-like cell line RG-15 (ROS 17/2.8) stably expressing rat osteocalcin promoter fused with luciferase reporter gene. […] Confluent RG-15 cells maintained in DMEM/F-12 medium (3:1) containing 5% FBS, 300 μg/ml G418 and at 37° C. under 5% CO2/95% air atmosphere were trypsinized (0.25% trypsin) and plated into white opaque 96-well cell culture plates (25000 cells/well). After 24 hr, cells (in DMEM/F-12 medium+2% FBS) were treated with various concentrations of compounds, dissolved in DMSO. The final DMSO concentration remained at 0.01% (v/v). After 48 hr treatment, the medium was removed, cells were lysed with 50 μl of lysis buffer (From Luciferase reporter assay system, Roche Diagnostics, Indianapolis, Ind.) and assayed for luciferase activity using the Luciferase Reporter Gene Assay kit from Boehringer Mannheim as per manufacturer's specifications.
(In a reporter assay the amount or activity of a reporter protein is the signal.)

Data set [1] can be described thus: Mouse hypercalcemia assay. Conditions: oral gavage for 6 days, serum ionized calcium 6 hours after last dosing.
Experimental: The Mouse Hypercalcemia Assay is a six day hypercalcemia test for toxicity and selectivity. Acceptable test results are levels greater than 300 μg/kg/day. Preferred assay results are levels greater than 1000 μg/day.
(4) Materials and Method for the Mouse Hypercalcemia Assay:
Weanling, virus—antibody-free, five to six weeks old female DBF mice (Harlan, Indianapolis, Ind.) are used for all the studies. Animals are allowed to acclimate to local vivarium conditions for 2 days. […] The animals then are divided into groups with 4-5 mice per group. Different doses of test compounds prepared in 10% Ethanol and 90% sesame oil are administered to mice orally via gavage for 6 days. 1α-25(OH)2D3 0.5 μg/kg/d was also given to one group of mice as the positive control. […] Raw data of group differences is assessed by analysis of variance (ANOVA) using Fisher's protected least significant difference (PLSD) where the significance level was P<0.05.
Another data set has as its target T1, VDR (Homo sapiens, UniProt P11473).
T1 construct: the receptor expression vector pGal4-VDR-LBD (10 ng); expressed in transfected cells; host or cells: Caco-2 cells
T1 sequence (P11473 127-423 limits assumed): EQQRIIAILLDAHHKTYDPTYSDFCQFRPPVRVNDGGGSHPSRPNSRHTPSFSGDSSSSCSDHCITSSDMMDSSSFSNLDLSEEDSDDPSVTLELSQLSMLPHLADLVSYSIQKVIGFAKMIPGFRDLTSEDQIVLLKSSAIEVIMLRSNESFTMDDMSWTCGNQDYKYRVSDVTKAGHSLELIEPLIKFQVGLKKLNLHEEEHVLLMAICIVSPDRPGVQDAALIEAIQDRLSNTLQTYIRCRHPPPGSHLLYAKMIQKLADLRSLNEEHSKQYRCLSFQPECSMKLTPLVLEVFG
Kind of data set: Caco-2 cell co-transfection assay (VDR CTF). Format: cell-based. Conditions: Caco-2 cells, pGal4-VDR-LBD co-transfection, luciferase reporter. The method, then:
2. The Caco-2 Cell Co-Transfection Assay:
The Caco-2 cell assay is an indicator for the undesirable condition of hypercalcemia. This co-transfection assay is a surrogate assay for in vivo calcemic activity of VDR ligands. […] Preferred assay results are greater than 1000 nM.
(2) Materials and Method for The Caco-2 Cell Assay:
Caco-2 cells, grown in phenol red free, DMEM (Invitrogen, Carlsbad, Calif.) containing 10% charcoal-stripped FCS (Hyclone, Logan, Utah), were transfected with Fugene 6 reagent (Roche Diagnostics, Indianapolis, Ind.). Cells (5000/well) were plated 18 h before transfection in a 96 well plate. The Cells were transfected with Gal4-responsive reporter pFRLuc (150 ng, Stratagene, La Jolla Calif.) and the receptor expression vector pGal4-VDR-LBD (10 ng), along with Fugene 6 reagent (0.2 μl/well). The DNA-Fugene complex was formed by incubating the mixture for 30 min at room temperature. The cells were transfected in triplicate for 5 h, and treated with various concentrations of VDR ligands (form 0.01 nM to 10,000 nM concentration range) 18 h post-transfection. The luciferase activity was quantified using Steady-Glo reagent kit (Promega, Madison, Wis.) as per manufacturer's specifications.

Usually EC50 stands for the concentration at which the effect is half-maximal.

As for `CCC(CC)(c1ccc(OCC(O)C(C)(C)C)c(C)c1)c1ccc(N(C)S(C)(=O)=O)c(C)c1` (single isomer, unassigned) [Ex. 20, N-(4-{1-ethyl-1-[4-(2-hydroxy-3,3-dimethyl-butoxy)-3-methyl-phenyl]-propyl}-2-methyl-phenyl)-N-methyl-methanesulfonamide], the 50% effective concentration (EC50) with rat osteocalcin promoter turned out to be 28.1 nM. In data set [1], the “Mouse Hypercal” value was 500 µg/kg/day. Turning to `CCC(CC)(c1ccc(OCC(O)CO)c(C)c1)c1ccc(OCC(O)C(C)(C)C)c(C)c1` (centres unmarked) [BB, 3-(4-{1-Ethyl-1-[4-(2-hydroxy-3,3-dimethyl-butoxy)-3-methyl-phenyl]-propyl}-2-methyl-phenoxy)-propane-1,2-diol, reference compound], the 50% effective concentration (EC50) in the data set on rat osteocalcin promoter (Rattus norvegicus, 48 h) came to 11 nM. The “Mouse Hypercal” value in data set [1] was 20 µg/kg/day. Take `CCC(CC)(c1ccc(OCC(=O)C(C)(C)C)c(C)c1)c1ccc(OS(C)(=O)=O)c(C)c1` [Ex. 4, 3′-[4-(2-oxo-3,3-dimethylbutoxy)-3-methylphenyl]-3′-[4-(methanesulfonyloxy)-3-methylphenyl]pentane]: the 50% effective concentration (EC50) in the data set on rat osteocalcin promoter (Rattus norvegicus, 48 h) stood at 0.91 nM; at VDR, 164 nM. In the same order, the values of `CCC(CC)(c1ccc(OCC(=O)C(C)(C)C)c(C)c1)c1ccc(OS(=O)(=O)CC)c(C)c1` [Ex. 8, 3′-[4-(2-oxo-3,3-dimethylbutoxy)-3-methylphenyl]-3′-[4-(ethanesulfonyloxy)-3-methylphenyl]pentane] are 3.48 nM and 34.8 nM. With `CCC(CC)(c1ccc(OCC(O)C(C)(C)C)c(C)c1)c1ccc(OS(=O)(=O)CC)c(C)c1` (centres unmarked) [Ex. 9, 3′-[4-(2-hydroxy-3,3-dimethylbutoxy)-3-methylphenyl]-3′-[4-(ethanesulfonyloxy)-3-methylphenyl]pentane], the midpoint of the response at VDR, the EC50, lay at 13 nM. On to `CCC(CC)(c1ccc(OCC(C)(O)C(C)(C)C)c(C)c1)c1ccc(OS(=O)(=O)CC)c(C)c1` (centres unmarked) [Ex. 10, 3′-[4-(2-hydroxy-2-methyl-3,3-dimethylbutoxy)-3-methylphenyl]-3′-[4-(ethanesulfonyloxy)-3-methylphenyl]pentane], for which the EC50 is 0.3 nM in the data set with rat osteocalcin promoter (Rattus norvegicus, 48 h) and 15 nM at VDR. As to `CCC(CC)(c1ccc(NS(C)(=O)=O)c(C)c1)c1ccc(OCC(O)C(C)(C)C)c(C)c1` (centres unmarked) [Ex. 12, 3′-[4-(2-Hydroxy-3,3-dimethylbutoxy)-3-methylphenyl]-3′-[4-(methanesulfonylamino)-3-methylphenyl]pentane], the EC50 with rat osteocalcin promoter (Rattus norvegicus, 48 h) was 2.33 nM; at VDR it was 112 nM.

`CCC(CC)(c1ccc(OCC(O)C(C)(C)C)c(C)c1)c1ccc(N(C)S(C)(=O)=O)c(C)c1` (centres unmarked) [Ex. 19, N-(4-{1-Ethyl-1-[4-(2-hydroxy-3,3-dimethyl-butoxy)-3-methyl-phenyl]-propyl}-2-methyl-phenyl)-N-methyl-methanesulfonamide]: the EC50 with rat osteocalcin promoter (Rattus norvegicus, 48 h) was found to be 16.8 nM. For the compound `CCC(CC)(c1ccc(OCC(=O)C(C)(C)C)c(C)c1)c1ccc(N(S(=O)(=O)CC)S(=O)(=O)CC)c(C)c1` [Ex. 22, N-(4-{1-[4-(3,3-dimethyl-2-oxo-butoxy)-3-methyl-phenyl]-1-ethyl-propyl}-2-methyl-phenyl)-N,N-bis-ethanesulfonamide], the half-maximal effective concentration (EC50) in the data set with rat osteocalcin promoter (Rattus norvegicus, 48 h) is 29.8 nM. Also, the “Mouse Hypercal” value in data set [1] is 500 µg/kg/day. Consider `CCC(CC)(c1ccc(OCC(=O)C(C)(C)C)c(C)c1)c1ccc(N(C)S(=O)(=O)CC)c(C)c1` [Ex. 24, N-(4-{1-[4-(3,3-Dimethyl-2-oxo-butoxy)-3-methyl-phenyl]-1-ethyl-propyl}-2-methyl-phenyl)-N-methyl-ethanesulfonamide], for which the concentration giving a half-maximal response (EC50) with rat osteocalcin promoter (Rattus norvegicus, 48 h) amounted to 44.6 nM. For the same compound, the “Mouse Hypercal” value in data set [1] is below 1000 µg/kg/day.

As for `CCC(CC)(c1ccc(NS(=O)(=O)C(F)(F)F)c(C)c1)c1ccc(OCC(=O)C(C)(C)C)c(C)c1` [Ex. 27, N-(4-{1-[4-(3,3-Dimethyl-2-oxo-butoxy)-3-methyl-phenyl]-1-ethyl-propyl}-2-methyl-phenyl)-trifluoromethanesulfonamide], the concentration for a half-maximal effect (EC50) in the data set on rat osteocalcin promoter (Rattus norvegicus, 48 h) was 10.6 nM. Moreover, the “Mouse Hypercal” value in data set [1] is 500 µg/kg/day.

As to `CCC(CC)(c1ccc(OCC(=O)C(C)(C)C)c(C)c1)c1ccc(N(S(=O)(=O)CC(F)(F)F)S(=O)(=O)CC(F)(F)F)c(C)c1` [Ex. 28, N-(4-{1-[4-(3,3-Dimethyl-2-oxo-butoxy)-3-methyl-phenyl]-1-ethyl-propyl}-2-methyl-phenyl)-N,N-bis-2,2,2-trifluoro-ethanesulfonamide], the EC50 in the data set with rat osteocalcin promoter (Rattus norvegicus, 48 h) is 17.9 nM. The “Mouse Hypercal” value in data set [1] is 1000 µg/kg/day. On the same counts, the results for `CCC(CC)(c1ccc(NS(=O)(=O)CC(F)(F)F)c(C)c1)c1ccc(OCC(=O)C(C)(C)C)c(C)c1` [Ex. 29, N-(4-{1-[4-(3,3-Dimethyl-2-oxo-butoxy)-3-methyl-phenyl]-1-ethyl-propyl}-2-methyl-phenyl)-2,2,2-trifluoro-ethanesulfonamide] are 4.58 nM and 100 µg/kg/day.

For `CCC(CC)(c1ccc(OCC(=O)C(C)(C)C)c(C)c1)c1ccc(N(CCSC)S(C)(=O)=O)c(C)c1` [Ex. 30, N-(4-{1-[4-(3,3-Dimethyl-2-oxo-butoxy)-3-methyl-phenyl]-1-ethyl-propyl}-2-methyl-phenyl)-N-(2-methylsulfanyl-ethyl)-methanesulfonamide], the EC50 in the data set with rat osteocalcin promoter (Rattus norvegicus, 48 h) turned out to be 104 nM. As for `CCSCCS(=O)(=O)Nc1ccc(C(CC)(CC)c2ccc(OCC(=O)C(C)(C)C)c(C)c2)cc1C` [Ex. 31, N-(4-{1-[4-(3,3-Dimethyl-2-oxo-butoxy)-3-methyl-phenyl]-1-ethyl-propyl}-2-methyl-phenyl)-2-ethylsulfanyl-ethanesulfonamide], the EC50 in the data set on rat osteocalcin promoter (Rattus norvegicus, 48 h) turned out to be 44 nM.

In the case of `CCC(CC)(c1ccc(NS(=O)(=O)CCS(=O)(=O)CC)c(C)c1)c1ccc(OCC(=O)C(C)(C)C)c(C)c1` [Ex. 32, N-(4-{1-[4-(3,3-Dimethyl-2-oxo-butoxy)-3-methyl-phenyl]-1-ethyl-propyl}-2-methyl-phenyl)-2-ethanesulfonyl-ethanesulfonamide], the EC50 in the data set on rat osteocalcin promoter (Rattus norvegicus, 48 h) stood at 240 nM.

Regarding `CCC(CC)(c1ccc(NS(=O)(=O)CCSC(C)C)c(C)c1)c1ccc(OCC(=O)C(C)(C)C)c(C)c1` [Ex. 33, N-(4-{1-[4-(3,3-Dimethyl-2-oxo-butoxy)-3-methyl-phenyl]-1-ethyl-propyl}-2-methyl-phenyl)-2-isopropylsulfanyl-ethanesulfonamide], the EC50 with rat osteocalcin promoter (Rattus norvegicus, 48 h) came out at 49.4 nM. `CCC(CC)(c1ccc(NS(=O)(=O)CCS(=O)(=O)C(C)C)c(C)c1)c1ccc(OCC(=O)C(C)(C)C)c(C)c1` [Ex. 34, N-(4-{1-[4-(3,3-Dimethyl-2-oxo-butoxy)-3-methyl-phenyl]-1-ethyl-propyl}-2-methyl-phenyl)-2-(propane-2-sulfonyl)-ethanesulfonamide]: the EC50 in the data set with rat osteocalcin promoter (Rattus norvegicus, 48 h) turned out to be 374 nM. As to `CCC(CC)(c1ccc(OCC(O)C(C)(C)C)cc1)c1ccc(OS(C)(=O)=O)c(C)c1` (centres unmarked) [Ex. 37, 3′-[4-(2-hydroxy-3,3-dimethylbutoxy)-phenyl]-3′-[4-methylsulfonyloxy-3-methylphenyl]pentane], the concentration giving a half-maximal response (EC50) is 67.2 nM with rat osteocalcin promoter (Rattus norvegicus, 48 h) and 308 nM on VDR. For `CCC(CC)(c1ccc(OS(C)(=O)=O)cc1)c1ccc(OCC(=O)C(C)(C)C)c(C)c1` [Ex. 38, 3′-[4-(2-oxo-3,3-dimethylbutoxy)-3-methylphenyl]-3′-[4-methylsulfonyloxy-phenyl]pentane], the 50% effective concentration (EC50) with rat osteocalcin promoter (Rattus norvegicus, 48 h) stood at 2.08 nM. Besides, the “Mouse Hypercal” value in data set [1] was below 300 µg/kg/day. On to `CCC(CC)(c1ccc(OCC(=O)C(C)(C)C)cc1)c1cc(C)c(OS(C)(=O)=O)c(C)c1` [Ex. 41, 3′-[4-(2-oxo-3,3-dimethylbutoxy)-phenyl]-3′-[3,5-dimethyl-4-methylsulfonyloxy-phenyl]pentane], for which the EC50 in the data set on rat osteocalcin promoter (Rattus norvegicus, 48 h) turned out to be 111 nM; on VDR, 614 nM.
